Source: PubChem BioAssay (NCI)
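Following 48 hours of exposure in 96-well plates, responses at five concentrations were used to interpolate endpoints linearly. Definition used: TGI = concentration required for complete inhibition of growth.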

What was measured:
Test in all cases: NCI-60 cell line screen, 48 h
[1] = tested on: MDA-N
[2] = tested on: HS 578T breast
[3] = tested on: MDA-MB-231 breast
[4] = tested on: K-562 leukemia
[5] = tested on: SN12C renal
[6] = tested on: RXF 393 renal
[7] = tested on: T-47D breast
[8] = tested on: SK-MEL-28 melanoma
[9] = tested on: NCI-H522 lung
[10] = tested on: OVCAR-4 ovarian

Compound | TGI [1] [µM] | TGI [2] [µM] | TGI [3] [µM] | TGI [4] [µM] | TGI [5] [µM] | TGI [6] [µM] | TGI [7] [µM] | TGI [8] [µM] | TGI [9] [µM] | TGI [10] [µM]
CSCSSC | > 100 | > 100 | > 100 | > 100 | > 100 | > 100 | > 100 | > 100 | > 100 | > 100
CCCC(=O)NC(Nc1ccc(S(=O)(=O)Nc2cc(C)on2)cc1)(C(=O)OCC)C(F)(F)F (stereo not given) | > 100 | > 100 | > 100 | > 100 | > 100 | > 100 | > 100 | > 100 | > 100 | > 100
CSCCC(N)C(=O)NCCNc1ccc(NCCNC(=O)C(N)CCSC)c2c1C(=O)c1ccccc1C2=O (stereo not given) | 4.23 | 6.85 | 2.81 | > 100 | 2.55 | 4.73 | 10.9 | 3.17 | 1.3 | 3.71
O=C(NCCCCCCCCCCCCNC(=O)Nc1cccc2ccccc12)Nc1cccc2ccccc12 | 31.2 | 52.4 | 35.9 | 50.5 | 31.6 | 30.6 | 36.7 | 36.3 | 28.9 | 24.1
Cc1cc(-c2nc3cc(F)ccc3s2)ccc1NC(=O)[C@@H](N)CCCCN | 3.27 | 24.7 | 10.5 | 5.21 | 26 | 24.2 | 17.3 | 34.6 | 21 | 22
Cc1ccc(S(=O)(=O)n2c3ccc(Br)cc3c3nc4ccccc4nc32)cc1 | > 100 | > 100 | > 100 | > 100 | > 100 | > 100 | > 100 | > 100 | > 100 | > 100
COc1ccc2c3c1OC1C(=O)C=CC4(CC2)N(C)CCC314 (stereo not given) | > 100 | 92.5 | > 100 | > 100 | > 100 | > 100 | > 100 | 66.1 | 33 | > 100
CC1CCCC2(CC[N+](C)(CCC[N+](C)(C)C)CC2)C1 (stereo not given) | > 100 | > 100 | > 100 | > 100 | > 100 | > 100 | > 100 | > 100 | > 100 | > 100
C[C@H](NC(=O)C(Cc1ccccc1)(Cc1ccc(O)cn1)NC(=O)c1ccccc1)c1ccccc1 (stereo not given in full) | 30.7 | 41.1 | 29.4 | > 100 | 31.5 | 28.2 | 69.1 | 38.3 | 35.4 | 50.4
Nc1ccc(S(=O)(=O)c2ccc(NCN3C(=O)NC(=O)C(=O)C3=O)cc2)cc1 | > 100 | > 100 | > 100 | > 100 | > 100 | > 100 | > 100 | > 100 | > 100 | > 100
C[N+](C)(C)c1ccc(C(N)C(=O)O)cc1 (stereo not given) | > 100 | > 100 | > 100 | > 100 | > 100 | > 100 | > 100 | > 100 | > 100 | > 100
C[n+]1cccc2c(=O)c3ccccc3oc21 | > 100 | > 100 | > 100 | > 100 | > 100 | > 100 | > 100 | > 100 | > 100 | > 100
